Data taken from patent US10130590B2, “Methods of treating cancer with atovaquone-related compounds” (DANA-FARBER CANCER INSTITUTE, INC., priority 2013, dated 2018).

What was measured:
JAK family members = assay: In vitro kinase assays (Invitrogen SelectScreen); type: biochemical; settings: atovaquone 15 μM
Procedure: FIG. 15 contains a bar graph quantifying kinase activity (expressed as percent of vehicle) for the indicated kinases (JAK1, JAK2, JAK3, TYK2, SRC) determined using in vitro kinase assays (Invitrogen SelectScreen) and following treatment with atovaquone (AQ) (15 μM) or JAK inhibitor 1 (0.5 μM).
To understand how atovaquone inhibits STAT3 phosphorylation, the possibility that atovaquone decreases the kinase activity of JAKs, which are responsible for STAT3 activation in the systems previously tested was considered. To assess kinase activity, the extent of kinase auto-phosphorylation, which provides a cellular readout of kinase activity, was first analyzed. […] In particular, U266 cells were treated with atovaquone (15 μM) or JAK inhibitor 1(1 μM) for 1 hour, followed by lysis and immunoprecipitation to TYK2. The blot was probed with a pan-phospho-tyrosine antibody (FIG. 14A). Due to technical limitations, tyrosine phosphorylation of other JAK family members was not detected in U266 cells. Next, HEL cells were treated with atovaquone (20 μM) or JAK inhibitor 1 (1 μM) for 6 hours, followed by lysis and immunoprecipitation to JAK2, which was selected because these cells harbor mutant JAK2-V617F. The blot was probed with a pan-phospho-tyrosine antibody, as well as antibodies specific to phospho-Tyr570 and phospho-Tyr1007/1008 (FIG. 14B). […]

[1] = test system: non-malignant peripheral blood mononuclear cells (PBMC); assay: Cell viability (Cell Titer Glo), PBMC; type: cell-based; settings: 72 hours, healthy donors
Procedure: Mouse embryonic fibroblasts (MEFs) were cultured in DMEM+10% FBS. TSC2-null (see, Zhang et al. J Clin Invest. 2003; 112(8):1223-1233) and REDD1-null (see, Sofer et al. Mol. Cell. Biol. July 2005 vol. 25 no. 14 5834-5845) MEFs, along with MEFs from the littermate controls, were kind gifts from Dr. John Blenis and Dr. Leif Ellisen, respectively. HEL (see, Iwama et al. Mol. Cell. Biol. June 1999 vol. 19 no. 6 3940-3950) was a kind gift of Dr. Daniel G. Tenen and grown in RPMI-1640+10% FBS. OCI-AML2 and OCI-AML3 (see, Grunberger et al. Blood Dec. 1, 2003 vol. 102 no. 12 4153-4158), and MOLM-13 (German Collection of Microorganisms and Cell Cultures (DSMZ, Braunschweig, Germany)) were kind gifts of Dr. James D. Griffin and grown in RPMI-1640+10% FBS. MM.1S (ATCC) was a kind gift of Dr. Kenneth C. Anderson and grown in RPMI-1640+10% FBS. SET2 (see, Koppikar et al. Nature 489, 155-159 (6 Sep. 2012)) was a kind gift of Dr. Ross L. Levine and grown in RPMI-1640+10% FBS. HL60 (ATCC) was a kind gift of Dr. James D. Griffin and grown in RPMI-1640+10% FBS. […] Molecular Pharmacology 78(5):903-908; and Walker S R, et al. (2009) Reciprocal effects of STAT5 and STAT3 in breast cancer. Molecular Cancer Research: MCR 7(6):966-976). Peripheral blood mononuclear cells (PBMCs) were isolated from healthy donors by Ficoll density gradient centrifugation and maintained in RPMI-1640+10% FBS. […]

Structure (SMILES): O=C1C(O)=C([C@H]2CC[C@H](c3ccc(Cl)cc3)CC2)C(=O)c2ccccc21 [atovaquone, trans-2-[4-(4-chlorophenyl)cyclohexyl]-3-hydroxy-1,4-naphthalenedione]
- in vitro kinase activity (JAK family members): no inhibition
- viability of PBMC [1]: relatively preserved
